# Laboratory results reported in publication PMC7947880 (Molecular Biology and Evolution, 2020).
# Where two headings read alike, the source gives them in different places.
# What was measured:
# [1] = biological target: T1, CYP51fx (sterol 14α-demethylase) (Methylococcus capsulatus, UniProt Q603T8); assay: UV-visible spectral titration; type: binding
# T1 sequence (Q603T8 1-551): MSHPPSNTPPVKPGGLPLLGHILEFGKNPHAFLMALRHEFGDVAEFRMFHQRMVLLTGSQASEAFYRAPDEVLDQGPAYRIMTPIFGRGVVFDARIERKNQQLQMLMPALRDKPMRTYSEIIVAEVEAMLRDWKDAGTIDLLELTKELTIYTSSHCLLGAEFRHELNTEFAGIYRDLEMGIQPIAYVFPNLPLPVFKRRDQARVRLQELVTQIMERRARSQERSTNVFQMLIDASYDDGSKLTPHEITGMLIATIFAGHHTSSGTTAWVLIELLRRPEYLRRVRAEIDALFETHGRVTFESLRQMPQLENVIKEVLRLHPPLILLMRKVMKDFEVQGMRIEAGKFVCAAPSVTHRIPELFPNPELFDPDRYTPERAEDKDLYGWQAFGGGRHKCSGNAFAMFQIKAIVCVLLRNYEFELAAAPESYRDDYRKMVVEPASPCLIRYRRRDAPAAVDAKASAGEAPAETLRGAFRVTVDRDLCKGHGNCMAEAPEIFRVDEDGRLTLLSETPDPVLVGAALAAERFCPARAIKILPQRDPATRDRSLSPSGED
# [2] = biological target: T1, CYP51fx (sterol 14α-demethylase); assay: UV-visible spectral titration; type: binding; remark: listed apart in the source
# [3] = biological target: T1, CYP51fx (sterol 14α-demethylase); type: biochemical
# [4] = biological target: T1, CYP51fx (sterol 14α-demethylase); assay: UV-visible spectral titration; type: binding; remark: listed apart in the source
SMILES,Kd [1],Kd [2],further results
CC(C)=CCC[C@@H](C)[C@H]1CC[C@@]2(C)[C@@H]3CC[C@H]4C(C)(C)[C@@H](O)CC[C@@]45C[C@@]35CC[C@]12C [cycloartenol],460 nM,–,–
CC(C)=CCC[C@@H](C)[C@H]1CC[C@@]2(C)[C@@H]3CC[C@H]4C(C)(C)[C@@H](O)CC[C@]4(C)C3=CC[C@]12C [parkeol],260 nM,–,–
CC(C)=CCC[C@@H](C)[C@H]1CC[C@@]2(C)C3=C(CC[C@]12C)[C@@]1(C)CC[C@H](O)C(C)(C)[C@@H]1CC3 [lanosterol],–,94 ± 11 nM,–
C=C(CC[C@@H](C)[C@H]1CC[C@@]2(C)C3=C(CC[C@]12C)[C@@]1(C)CC[C@H](O)C(C)(C)[C@@H]1CC3)C(C)C [eburicol],–,48 ± 4 nM,–
C=C(CC[C@@H](C)[C@H]1CC[C@@]2(C)C3=C(CC[C@]12C)[C@@]1(C)CC[C@H](O)[C@@H](C)[C@@H]1CC3)C(C)C [obtusifoliol],–,–,reconstituted 14α-demethylase turnover of radiolabeled sterol with E. coli flavo [3]: 1.2 min⁻¹
CC(C)=CCC[C@@H](C)[C@H]1CC[C@@]2(C)[C@@H]3CC=C4[C@@H](CC[C@H](O)C4(C)C)[C@]3(C)CC[C@]12C [cucurbitadienol],–,–,Kd [4]: 670 nM
